Assay results as given in PubChem BioAssay AID1053140 (Broad Institute, 2014).
The source made the active and inactive calls.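 The calls were made as follows: active = cell killing, with AC50 under 10 µM and within twice the top valid dose; inactive = effect in the opposite direction, and the rest.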

System: not listed separately
Assay: A549 cell cytotoxicity, dose response, cytotoxicity control, ATP luminescence, dry powder, set 16 (AID 1053140)
Settings: A549 viability, CellTiter-Glo ATP luminescence, 72 h; at 26 µM (top of the series)
In the case of `CO[C@H]1CN(C)C(=O)c2ccc(NC(=O)NC(C)C)cc2OC[C@H](C)N(Cc2ccccc2)C[C@@H]1C`, the activity change, negative = cytotoxic is reported as 4.59% (inactive).
With `CCCC(=O)Nc1ccc2c(c1)OC[C@H](C)N(Cc1ccc(-c3ccccn3)cc1)C[C@H](C)[C@@H](OC)CN(C)C2=O` the activity change, negative = cytotoxic was 6.08% (inactive).
With `CCCNC(=O)Nc1ccc2c(c1)OC[C@H](C)N(Cc1ccc(-c3ccccn3)cc1)C[C@H](C)[C@@H](OC)CN(C)C2=O` the activity change, negative = cytotoxic was -9.23% (inactive).
In the case of `CCCNC(=O)Nc1ccc2c(c1)OC[C@H](C)N(Cc1ccccc1)C[C@H](C)[C@@H](OC)CN(C)C2=O`, the activity change, negative = cytotoxic is reported as 0.334% (inactive).
With `CCCC(=O)Nc1ccc2c(c1)OC[C@H](C)N(Cc1ccccc1)C[C@H](C)[C@@H](OC)CN(C)C2=O` the activity change, negative = cytotoxic was -0.093% (inactive).
In the case of `CO[C@H]1CN(C)C(=O)c2ccc(NC(=O)NC(C)C)cc2OC[C@H](C)N(Cc2ccc(-c3ccccn3)cc2)C[C@@H]1C`, the activity change, negative = cytotoxic is reported as 3.22% (inactive).

Same assay, conditions: A549 viability, CellTiter-Glo ATP luminescence, 72 h; at 50 µM (top of the series)
For `CO[C@H]1CN(C)C(=O)c2cc(NC(=O)NC(C)C)ccc2OC[C@H](C)N(Cc2ccncc2)C[C@@H]1C`, the activity change, negative = cytotoxic was 4.36% (inactive).
With `CO[C@H]1CN(C)C(=O)c2cc(NC(=O)NC(C)C)ccc2OC[C@H](C)N(Cc2cncnc2)C[C@@H]1C` the activity change, negative = cytotoxic was -6.71% (inactive).
In the case of `CO[C@H]1CN(C)C(=O)c2cc(NC(=O)NC(C)C)ccc2OC[C@H](C)N(Cc2ccc(F)cc2)C[C@@H]1C`, the activity change, negative = cytotoxic is reported as -3.88% (inactive).
With `CO[C@H]1CN(C)C(=O)c2cc(NC(=O)NC(C)C)ccc2OC[C@H](C)N(C(=O)c2ccc(-c3ccccn3)cc2)C[C@@H]1C` the activity change, negative = cytotoxic was -11.3% (inactive).
With `CO[C@H]1CN(C)C(=O)c2cc(NC(=O)NC(C)C)ccc2OC[C@H](C)N(Cc2cccnc2)C[C@@H]1C` the activity change, negative = cytotoxic was 6.13% (inactive).
With `CO[C@H]1CN(C)C(=O)c2cc(NC(=O)NC(C)C)ccc2OC[C@H](C)N(C(=O)c2ccccc2)C[C@@H]1C` the activity change, negative = cytotoxic was -11.4% (inactive).
With `CO[C@H]1CN(C)C(=O)c2cc(NC(=O)NC(C)C)ccc2OC[C@H](C)NC[C@@H]1C` the activity change, negative = cytotoxic was -2.18% (inactive).

System: A549 viability, CellTiter-Glo ATP luminescence, 72 h
Assay: as above
Settings: not given
Work on `CO[C@H]1CN(C)C(=O)c2cc(Nc3c(NC4CCCCC4)c(=O)c3=O)ccc2OC[C@H](C)N(Cc2ccc(-c3ccccn3)cc2)C[C@@H]1C` yielded an AC50 of 36.8 µM.
For `CO[C@H]1CN(C)C(=O)c2cc(Nc3c(NC4CCCC4)c(=O)c3=O)ccc2OC[C@H](C)N(Cc2ccc(-c3ccccn3)cc2)C[C@@H]1C`, the AC50 was > 100 µM (inactive).
With `CO[C@H]1CN(C)C(=O)c2cc(NC(=O)OC(C)C)ccc2OC[C@H](C)N(Cc2ccc(-c3ccccn3)cc2)C[C@@H]1C` the AC50 was > 100 µM (inactive).
With `CO[C@H]1CN(C)C(=O)c2cc(NC(=O)NC(C)C)ccc2OC[C@H](C)N(Cc2ccccn2)C[C@@H]1C` the AC50 was > 100 µM (inactive).
`CO[C@H]1CN(C)C(=O)c2cc(NC(=O)NC(C)C)ccc2OC[C@H](C)N(Cc2ccc(-c3cccnc3)cc2)C[C@@H]1C` gave an AC50 of 45.7 µM.
For `CO[C@H]1CN(C)C(=O)c2cc(Nc3c(NC4CC4)c(=O)c3=O)ccc2OC[C@H](C)N(Cc2ccc(-c3ccccn3)cc2)C[C@@H]1C`, the AC50 was 25.2 µM.
In the case of `CO[C@H]1CN(C)C(=O)c2cc(NC(=O)NC(C)C)ccc2OC[C@H](C)N(C(=O)Nc2ccc(-c3ccccn3)cc2)C[C@@H]1C`, the AC50 is reported as > 100 µM (inactive).
With `CO[C@H]1CN(C)C(=O)c2cc(Nc3ncccn3)ccc2OC[C@H](C)N(Cc2ccc(-c3ccccn3)cc2)C[C@@H]1C` the AC50 was > 100 µM (inactive).
For `CO[C@H]1CN(C)C(=O)c2cc(NC(=O)NC(C)C)ccc2OC[C@H](C)N(Cc2ccc(-c3cncnc3)cc2)C[C@@H]1C`, the AC50 was > 100 µM (inactive).
In the case of `CO[C@H]1CN(C)C(=O)c2cc(Nc3c(NC(C)C)c(=O)c3=O)ccc2OC[C@H](C)N(Cc2ccc(-c3ccccn3)cc2)C[C@@H]1C`, the AC50 is reported as 45.3 µM.
With `CO[C@H]1CN(C)C(=O)c2cc(NC(=O)C(C)C)ccc2OC[C@H](C)N(Cc2ccc(-c3ccccn3)cc2)C[C@@H]1C` the AC50 was > 100 µM (inactive).
For `CO[C@H]1CN(C)C(=O)c2cc(N)ccc2OC[C@H](C)N(Cc2ccc(-c3ccccn3)cc2)C[C@@H]1C`, the AC50 was > 100 µM (inactive).
With `CCC(CC)Nc1c(Nc2ccc3c(c2)C(=O)N(C)C[C@H](OC)[C@@H](C)CN(Cc2ccc(-c4ccccn4)cc2)[C@@H](C)CO3)c(=O)c1=O` the AC50 was 43.7 µM.
